Data reported in publication PMC6501426 (Clinical Epigenetics, 2019).

Tests used:
human C-terminal DNMT3A = biological target: T1, human C-terminal DNMT3A (Homo sapiens, UniProt Q9Y6K1); assay: DNMT3A restriction-based fluorescence assay; assay type: biochemical; conditions: fluorescent assay; C-terminal catalytic domain; read-out: EC50 ± SD, hDNMT3A
T1 construct: the C-terminal catalytic domain of human DNMT3A (hDNMT3A)
Description: DNMT3A enzyme inhibition was adapted from the restriction-based fluorescence assay protocol described in Ceccaldi et al.. Briefly, it is performed in a 384-well microplate in a total volume of 50 μL. An oligonucleotide labeled at the 5′ end with biotin is hybridized to his complementary strand labeled at the 3′ end with 6-carboxyfluorescein. The DNA duplex thus formed contains only one single CpG site overlapping with a restriction site of a methylation sensitive restriction enzyme. The duplex is transferred in the wells coated with avidin. Thus, the duplex is fixed to the plate. The methylation reaction is performed by adding human C-terminal DNMT3A at the final concentration of 4 ng/μL in a total volume of 50 μL in the presence of the chemical compound to be tested at the desired concentration and the cofactor SAM at the final concentration of 20 μM. After incubation (1 h at 37 °C), the plate is washed and the methylation sensitive restriction enzyme HpyCH4IV is added. After 1-h incubation at 37 °C, the plate is washed and the fluorescence measured with a PerkinElmer Envision Multilabel Plate Reader (PerkinElmer, Villebon-sur-Yvette, France). The data are expressed as a percentage of inhibition vs. log concentration (M). Data are normalized referring to the “restriction control” (wells coated with labeled duplex not treated nor exposed to DNMT3A, but only cleaved by HpyCH4IV) as the maximum of inhibition (100%) and to the “DMSO control” (wells coated with labeled duplex but treated just with 0.1% DMSO exposed to DNMT3A and then to HpyCH4IV) as the minimum of inhibition (0%; total methylation).

human DNMT1 = biological target: T2, human DNMT1 (Homo sapiens, UniProt P26358); assay: DNMT1 assay (radiolabeled SAM, Flashplate); assay type: biochemical; conditions: radioactivity assay; at least two independent experiments; read-out: EC50 ± SD, hDNMT1
T2 construct: His; made in house
T2 sequence (P26358 whole entry): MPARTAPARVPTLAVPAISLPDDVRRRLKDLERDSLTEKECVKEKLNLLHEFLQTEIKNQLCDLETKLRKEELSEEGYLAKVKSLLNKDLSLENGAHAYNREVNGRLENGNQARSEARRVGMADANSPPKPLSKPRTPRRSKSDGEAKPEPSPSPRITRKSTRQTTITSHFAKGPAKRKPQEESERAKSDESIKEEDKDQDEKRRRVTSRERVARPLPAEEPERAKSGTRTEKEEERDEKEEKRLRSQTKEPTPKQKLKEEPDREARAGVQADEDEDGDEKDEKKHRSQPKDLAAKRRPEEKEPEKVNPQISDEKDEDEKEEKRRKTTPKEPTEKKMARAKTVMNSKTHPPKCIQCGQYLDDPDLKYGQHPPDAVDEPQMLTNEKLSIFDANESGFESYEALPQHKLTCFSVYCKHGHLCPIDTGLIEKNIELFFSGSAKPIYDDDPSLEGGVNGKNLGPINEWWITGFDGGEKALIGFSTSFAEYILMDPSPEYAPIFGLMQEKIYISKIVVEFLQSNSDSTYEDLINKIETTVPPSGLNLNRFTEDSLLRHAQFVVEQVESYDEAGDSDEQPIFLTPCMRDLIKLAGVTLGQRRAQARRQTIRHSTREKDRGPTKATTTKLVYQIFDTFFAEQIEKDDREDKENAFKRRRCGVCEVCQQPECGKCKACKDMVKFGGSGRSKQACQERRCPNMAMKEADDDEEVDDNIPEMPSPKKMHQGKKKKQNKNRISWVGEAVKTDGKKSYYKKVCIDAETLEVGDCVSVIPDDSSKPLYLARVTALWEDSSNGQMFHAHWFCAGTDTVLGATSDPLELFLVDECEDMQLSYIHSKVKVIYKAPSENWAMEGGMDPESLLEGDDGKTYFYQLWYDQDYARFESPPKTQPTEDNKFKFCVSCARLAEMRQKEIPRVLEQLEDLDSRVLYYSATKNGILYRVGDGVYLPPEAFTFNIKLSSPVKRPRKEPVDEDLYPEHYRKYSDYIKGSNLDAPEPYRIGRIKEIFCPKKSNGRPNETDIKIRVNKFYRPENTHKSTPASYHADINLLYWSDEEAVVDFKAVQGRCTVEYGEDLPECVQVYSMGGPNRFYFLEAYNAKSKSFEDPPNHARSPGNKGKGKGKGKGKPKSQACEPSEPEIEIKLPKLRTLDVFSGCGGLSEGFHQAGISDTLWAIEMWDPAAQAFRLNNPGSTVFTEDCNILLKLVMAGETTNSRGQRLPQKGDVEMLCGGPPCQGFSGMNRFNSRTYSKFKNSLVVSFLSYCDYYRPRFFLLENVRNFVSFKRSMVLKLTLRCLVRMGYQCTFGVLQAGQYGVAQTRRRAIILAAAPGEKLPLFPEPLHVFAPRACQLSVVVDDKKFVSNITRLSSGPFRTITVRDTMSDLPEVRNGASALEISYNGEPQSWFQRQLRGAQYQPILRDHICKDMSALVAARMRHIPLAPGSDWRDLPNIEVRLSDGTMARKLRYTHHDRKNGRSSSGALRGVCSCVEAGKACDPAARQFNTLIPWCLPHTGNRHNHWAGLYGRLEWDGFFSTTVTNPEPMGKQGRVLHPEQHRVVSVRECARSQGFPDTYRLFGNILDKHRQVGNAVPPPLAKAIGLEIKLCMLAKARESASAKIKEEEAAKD
Description: His-DNMT1 (182 kDa, human) was cloned, expressed, and purified as described by Lee et al.. The DNMT1 assay was performed according to Gros et al.. Briefly, the DNMT1 enzymatic assay is based on the use of radiolabeled SAM, and the methylation occurs in homogeneous phase in 384-well microplates. The reaction is performed with DNMT1 at the final concentration of 90 nM in a total volume of 10 μL including also the chemical compound to be tested at the desired concentration, 1.25 μM of SAM//[methyl-^3H] SAM (3TBq/mmol) mix in a ratio of 3:1 and 0.3 μM of biotinylated DNA duplex. DNMT1, as “maintenance” methyltransferase, requires hemimethylated DNA for the reaction. After 2 h incubation at 37 °C, 8 μL of the reaction’s solution is transferred into a streptavidin 96-well scintillant coated Flashplate^TM containing 190 μL of […] in 50 mM Tris-HCl (pH 7.4). The Flashplate^TM is then agitated at room temperature for 1 h and washed. The plate is read with TopCount (PerkinElmer, Villebon-sur-Yvette, France). The greater the DNMT1 inhibition, the lower will be the scintillation signal correlated to the incorporation of the tritiated methyl groups. In this assay, the negative and positive controls were defined as wells without enzyme and wells without any compound but just DMSO, respectively.

[1] = test system: methylated UCHL1 promoter EGFP reporter in HCT116 cells; assay: UCHL1 promoter demethylation assay (EGFP expression, FACS) in HCT116; assay type: cell-based, human; conditions: 5 μM, 5 days, HCT116 with methylated pUCHL1 vector
Description: Human colon cancer HCT116 (ATCC, VA, USA) cells were propagated in McCoy’s 5A medium (Euroclone, Milan, Italy) with 10% fetal bovine serum (FBS; Euroclone), 2 mM L-glutamine (Euroclone), and antibiotics (100 U/mL penicillin, 100 µg/mL streptomycin) (Euroclone). For the treatments with MC3353, 5-AZA, and DAC as positive controls, 2 × 10^4 cells were seeded in 6-well plates in triplicate. Cells were treated every 2 days, and the medium was changed. On day 5, cells were observed under a fluorescent microscope. The nuclei were counterstained with DAPI (10 μg/mL, Invitrogen, Tournai, Belgium).
Fluorescence of EGFP and DAPI in living cells was analyzed by Cytation™ 5 Cell Imaging Multi-Mode Reader (BioTeK, Milan, Italy).
Before the transfection, the pUMLIEP vector was linearized by with ClaI restriction enzyme (New England Biolabs, Milan, Italy) and then it was methylated by SssI-methylase (New England Biolabs, Milan, Italy) for 60 min. The methylated vector was transfected into HCT116 cells using Lipofectamine™2000 (Invitrogen, Monza, Italy) and Opti-MEM® (Gibco, Monza, Italy), and stably introduced clones were selected with puromycin (1.0 μg/mL, Sigma-Aldrich, Milan, Italy). The detailed protocol for the generation of cells highly responsive to DNA demethylating agents is described in [27].
Next, the demethylating activity of MC3353 was evaluated in cells transfected with luciferase and EGFP reporter genes driven by the UCHL1 promoter. The UCHL1 promoter is silenced by methylation in human colon cancer and can be demethylated by specific treatments, inducing expression of Metridia luciferase and EGFP reporter genes. In particular, the pUCHL1 vector, after methylation, was transfected into HCT116 colon cancer cells, and the stable clone was obtained by puromycin selection. Afterwards, cells were treated with 5-AZA (5 μM), with DAC (5 μM), or with MC3353 (0.1 μM) for 5 days. Such a low MC3353 dose was used because of its cytotoxicity at higher concentrations in long treatments.

[2] = test system: E-cadherin mRNA in PC-3 cells; assay: qPCR of E-cadherin in PC-3; assay type: cell-based, human; conditions: MC3353 24 h; 5-AZA, DAC 5 days, effect from 1 to 5 μM
Excerpt: (§1) RNAs were extracted by ReliaPrep™ RNA Tissue Miniprep (Promega, Madison, WI, USA) and reverse transcribed with PrimeScript RT Master Mix (Takara, Kusatsu, Shiga, Japan). cDNAs were amplified by a qPCR reaction using GoTaq qPCR Master Mix (Promega) and analyzed with the oligonucleotide pairs specific for the target genes. Relative amounts, determined with the 2^(−ΔCt) method, were normalized with respect to the human housekeeping gene L32. The primers used are as follows: L32 (forward: 5′-[…]-3′, reverse: 5′-[…]-3′), E-cadherin (forward: 5′-[…]-3′, reverse: 5′-[…]-3′), and MMP2 (forward: 5′-[…]-3′, reverse: 5′-[…]-3′).
(§2) Prompted by these findings, we investigated the ability of MC3353 to modulate EMT pathway, using 5-AZA and DAC as reference drugs. […] The levels of mRNA transcripts of E-cadherin and matrix metalloproteinase-2 (MMP2) were determined. E-cadherin is involved in the maintenance of the epithelial identity and in the control of tumor invasiveness, whereas MMP2, through degradation of type IV collagen, the most abundant component of the basement membrane, controls an essential step for metastatic progression of most cancers as well as for induction of angiogenesis.

[3] = test system: MMP2 mRNA in HCT116 cells; assay: qPCR of MMP2 in HCT116; assay type: cell-based, human; conditions: MC3353 0.1 and 1 μM 24 h; 5-AZA, DAC 5 days, also at 0.1 to 1 μM
Excerpt: as §1, §2

[4] = test system: E-cadherin mRNA in HCT116 cells; assay: qPCR of E-cadherin in HCT116; assay type: cell-based, human; conditions: MC3353 0.1 μM 24 h; 5-AZA, DAC every 2 days for 5 days at 0.1, 1, 5 μM
Excerpt: as §1, §2

[5] = test system: double DNMT knockout (DKO) HCT116 cells; assay: MTT proliferation assay DKO HCT116; assay type: cell-based, human; conditions: 24 and 48 h; MC3353 at 0.5 μM after 48 h; DAC, 5-AZA up to highest dose
Description: DKO HCT116 (ATCC, VA, USA) cells were propagated in Dulbecco’s modified Eagle medium (DMEM) (Euroclone, Milan, Italy) with 10% fetal bovine serum (FBS; Euroclone, Milan, Italy), 2 mM L-glutamine (Euroclone, Milan, Italy) and antibiotics (100 U/mL penicillin, 100 µg/mL streptomycin) (Euroclone, Milan, Italy).
(§3) The MTT [3-(4,5-dimethylthiazol-2-yl)-2,5-diphenyltetrazolium bromide] (Sigma-Aldrich, Milan, Italy) assay was used to determine the proliferation of HCT116 clone and DKO HCT116 cells after treatment with MC3353, 5-AZA, and DAC. 5 × 10^4 cells/well for both cell lines were plated in 24-well plate and treated, in duplicate, with compounds at several concentrations for 24 and 48 h of induction. After treatments, MTT solution was added for 3 h at 0.5 mg/mL, the purple formazan crystals were dissolved in DMSO (Sigma-Aldrich, Milan, Italy), and the absorbance was read at a wavelength of 570 nm with reader TECAN M-200.

HCT116 cells = assay: MTT proliferation assay HCT116; assay type: cell-based, human; conditions: 24 and 48 h; MC3353 from 0.5 μM after 48 h; DAC at 10 μM
Description: as §3

MMP2 mRNA in PC-3 cells = assay: qPCR of MMP2 in PC-3; assay type: cell-based, human; conditions: MC3353 0.1 and 1 μM 24 h; 5-AZA, DAC 5 days, also at 0.1 to 1 μM
Excerpt: as §1, §2

T1 sequence (Q9Y6K1 634-912 limits assumed): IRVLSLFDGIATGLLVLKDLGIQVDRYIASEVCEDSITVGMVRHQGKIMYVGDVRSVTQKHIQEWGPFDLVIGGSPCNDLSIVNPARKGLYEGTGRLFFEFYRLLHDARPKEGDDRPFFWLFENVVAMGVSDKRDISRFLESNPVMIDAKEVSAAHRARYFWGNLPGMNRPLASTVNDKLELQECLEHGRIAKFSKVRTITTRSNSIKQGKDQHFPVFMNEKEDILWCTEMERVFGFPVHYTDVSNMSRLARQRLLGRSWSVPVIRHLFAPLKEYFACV

| EC50 (human C-terminal DNMT3A) [µM] | EC50 (human DNMT1) [µM] | Structure (SMILES) | EGFP gene expression induction (FACS) [1] [%] | E-cadherin mRNA expression, PC-3 [2] | MMP2 mRNA expression, HCT116 [3] | E-cadherin mRNA expression, HCT116 [4] | effect on DKO HCT116 proliferation (MTT) [5] | effect on HCT116 proliferation (MTT) (HCT116 cells) | MMP2 mRNA expression, PC-3 (MMP2 mRNA in PC-3 cells) |
| --- | --- | --- | --- | --- | --- | --- | --- | --- | --- |
| > 500 | 390 ± 50 | O=C(O)C(Cc1c[nH]c2ccccc12)N1C(=O)c2ccccc2C1=O (stereo not drawn) [RG-108, reference compound] |  |  |  |  |  |  |  |
|  |  | Nc1ncn([C@@H]2O[C@H](CO)[C@@H](O)[C@H]2O)c(=O)n1 [Compound 5-AZA, 5-azacytidine] | 38.5 | able to induce E-cadherin expression | increased MMP2 level | able to induce E-cadherin expression | weak effect | negligible effect | increased MMP2 level |
